In patent publication US12012637B2 (University of South Florida, priority 2017, dated 2024):

Assays:
iPSCs [1] = test: WST1 proliferation assay; assay type: cell-based, human; details: 50 μM, 72 hours
Method: iPSCs were grown in 6 well plates and split 1:10 at 3-day intervals. […] WST1 proliferation assays were performed as previously described^29.

LIN28B [2] = test: Dual immunofluorescence staining of LIN28B and GLUT1 in IH sections from propranolol-treated patients; assay type: in vivo, human
Method: Paraffin embedded infantile hemangioma and placenta sections (10 μm) were immunostained with primary antibodies against LIN28B 40 ug/ml (Abcam Cat #ab71415, RRID:AB_2135050) and GLUT1 3.4 ug/ml (Abcam Cat #ab40084, RRID:AB_2190927) overnight at 4° C. Sections were washed 3 times in PBS and incubated with 4 ug/ml secondary antibody Alexa Fluor 488 (Life Technologies Cat #a21202, RRID:AB_141607) for GLUT1 and alexa fluor cy3 (Life Technologies Cat #a10520, RRID:AB_2534029) for LIN28B for 30 minutes at room temperature. The sections were then washed with PBS and mounted with ProLong Diamond Antifade Mountant with DAPI, (Invitogen). Confocal images were obtained using an Olympus FV 1200 instrument. Immunofluorescence intensities were measured using ImageJ software as described^33. Fluorescence intensities were normalized to background intensities of secondary antibody only controls.

hemangioma stem cells = details: cited from earlier work
iPSCs [3] = test: sRNAseq analysis of miRNA cistrons in propranolol-treated iPSCs
LIN28B [4] = test: Immunoblot of LIN28B in propranolol-treated iPSCs; assay type: cell-based, human; details: 50 μM, 72 h, vs vehicle control
Method: (§1) Briefly, freshly dissected IH tissues were digested in 0.2% collagenase A (Roche Diagnostics, Indianapolis, IN). […] HemSCs were maintained in EBM-2 SingleQuot media Supplemented with 20% FBS.
Immunoblot analyses were performed as previously described^34 using 24 ng/ml antibodies against GAPDH (Cell Signaling Technology Cat #2118L RRID:AB_561053), […] antibodies against LIN28B (Abcam Cat #ab71415 RRID:AB_2135050) followed by IRDye 680 donkey anti-rabbit IGG secondary antibodies (0.2 μg/ml, LI-COR, 926-68073 RRID: AB_10954442). Immunoblots were imaged using the Odyssey Infrared Imaging System (LI-COR) and quantified using Image Studio software (LI-COR).

mir-498(46) = details: previous work (ref. 7); cited from earlier work
iPSCs [5] = test: mRNA sequencing (RNAseq) and gene set enrichment analysis of propranolol-treated iPSCs; assay type: cell-based, human; details: 50 μM
Method: as §1
The cDNA library preparation was completed by second strand synthesis using SuperScript III, alkaline RNA hydrolysis, and PCR amplification for 10 cycles. mRNA libraries were prepared by utilizing the Illumina TruSeq Stranded mRNA LT protocol using 500 ng total RNA and NEB's Protoscript II reverse transcriptase for the first-strand cDNA synthesis according to the manufacturer's protocol. Individual RNAseq libraries were quality controlled on an Agilent TapeStation with a High Sensitivity D1000 ScreenTape. […] The libraries were sequenced on an Illumina NextSeq 500 sequencer 75-bp paired-end in mid-output mode in the Genomics Core Facility of The Rockefeller University.
The miRNA read annotation for sRNAseq experiments was performed as previously described^36, 37 using an slightly updated, manually curated miRNA reference based on previous work 38. […] The RNAseq data was aligned to the Human Genome Build 38 using the STAR aligner^40 (version 2.0.4j) allowing for two mismatches.
All data were tested for normality.

iPSCs [6] = test: Bright field morphology of propranolol-treated iPSCs; assay type: cell-based, human; details: 50 μM, 72 h, compared to control
iPSCs [7] = test: qRT-PCR analysis of miRNAs and genes in propranolol-treated iPSCs; assay type: cell-based, human; details: 50 μM
[8] = iPSCs, 50 μM, 72 h, vs vehicle control

CC(C)NCC(O)COc1cccc2ccccc12 (centres unmarked) [Propranolol]
decrease in cell proliferation (iPSCs [1]): 33% | LIN28B and GLUT1 immunostaining (LIN28B [2]; propranolol-treated proliferative IH compared to untreated proliferative IH): markedly decreased | LIN28B to GLUT1 immunofluorescence signal intensity, increase in proliferative IH compared to propranolol treated IH (LIN28B [2]; untreated proliferative IH vs propranolol treated IH samples): ~2 fold | adipogenesis in hemangioma stem cells (hemangioma stem cells): induce adipogenesis | downregulation of mir-498(46) (iPSCs [3]; [8]): 1.6 fold | increase in expression of cistron mir-98(13) (iPSCs [3]; [8]): 3.2 fold | Normalized frequency, cistron mir-10a(1) (iPSCs [3]; propranolol-treated iPSCs): 0.0168% | Normalized frequency, cistron mir-10b(1) (iPSCs [3]; propranolol-treated iPSCs): 0.0176% | Normalized frequency, cistron mir-21(1) (iPSCs [3]; propranolol-treated iPSCs): 10.5844% | Normalized frequency, cistron mir-33b(1) (iPSCs [3]; propranolol-treated iPSCs): 0.002% | Normalized frequency, cistron mir-98(13) (iPSCs [3]; propranolol-treated iPSCs): 0.2313% | Normalized frequency, cistron mir-188(8) (iPSCs [3]; propranolol-treated iPSCs): 0.1459% | Normalized frequency, cistron mir-488(1) (iPSCs [3]; propranolol-treated iPSCs): 0.0022% | Normalized frequency, cistron mir-498(46) (iPSCs [3]; propranolol-treated iPSCs): 0.4075% | Normalized frequency, cistron mir-1226(1) (iPSCs [3]; propranolol-treated iPSCs): 0% | Normalized frequency, cistron mir-3155(1) (iPSCs [3]; propranolol-treated iPSCs): 0.0014% | decrease in LIN28B protein levels (LIN28B [4]): 2.3 fold | levels of mir-498(46) in propranolol-treated IH tumors vs proliferative IH (mir-498(46)): significantly lower levels | SERPINE1 increase (RNAseq) (iPSCs [5]; 72 h): 12 fold | TWIST1 increase (RNAseq) (iPSCs [5]; 72 h): 2.9 fold | gene set analysis: TGF-β signaling pathway (iPSCs [5]; 72 h, FDR 0.06): upregulation | gene set analysis: adipogenesis pathway (iPSCs [5]; 72 h, FDR 0.09): upregulation | gene set analysis: E2F targets (iPSCs [5]; 72 h, FDR<0.25): downregulation | gene set analysis: G2M checkpoint (iPSCs [5]; 72 h, FDR<0.25): downregulation | gene set analysis: mitotic spindle pathway (iPSCs [5]; 72 h, FDR<0.25): downregulation | gene set enrichment: genes defining EMT (iPSCs [5]; 72 h vs control, FDR 0.00046): enrichment | EMT associated morphological changes (iPSCs [6]): more elongated cellular shape | SERPINE1 increased expression (qRT-PCR) (iPSCs [7]; 72 h): 8.4 fold | TWIST1 increased expression (qRT-PCR) (iPSCs [7]; 72 h): 5 fold | LIN28B mRNA levels (iPSCs [7]; 72 h, data not shown): no significant differences | increase in let-7a expression (qRT-PCR) (iPSCs [7]; 72 hr): > 1. 65 fold | miR-515-5p expression (qRT-PCR) (iPSCs [7]; 72 hr): significant reduction | miR-517a expression (qRT-PCR) (iPSCs [7]; 72 hr): significant reduction | miR-518C expression (qRT-PCR) (iPSCs [7]; 72 hr): significant reduction | miR-519d expression (qRT-PCR) (iPSCs [7]; 72 hr): significant reduction
